Results on 24 compounds are retold here after patent US20090054392A1, “NAPHTHYLPYRIMIDINE, NAPHTHYLPYRAZINE AND NAPHTHYLPYRIDAZINE ANALOGS AND THEIR USE AS AGONISTS OF THE WNT-BETA-CATENIN CELLULAR MESSAGING SYSTEM” (Wyeth, priority 2007, published 2009).

The subject of the series is Dkk1-LRP5-TCF-Luciferase. Description: Functional Dkk1-LRP5-TCF-Luciferase Assay in U2OS Cells. Conditions: for EC50 / fold induction at 2 µM / fold induction at 20 µM: Homo sapiens, U2OS; for fold induction at 2 µM: read-out: B = TCF ACTIVITY/DMSO CONTROL Fold induction @ 2.0 uM, 2.0 uM compound; for fold induction at 20 µM: read-out: C = TCF ACTIVITY/DMSO CONTROL Fold induction @ 20.0 uM, 20.0 uM compound; for A = MAX FOLD Induction/DMSO CONTROL: maximum fold induction over DMSO control.

Procedure: Biological Evaluation—Functional Dkk1-LRP5-TCF-Luciferase Assay in U2OS Cells
Frozen U2OS-Dkk1-HTS Reporter cells generation: U2OS Human Bone derived cells (Osteosarcoma) are grown in McCoy's 5A Medium (Modified), with L -glutamine (GIBCO Cat No. 16600-082)+1% Pen-Strep+5% FBS) plated at 1×10^7 cells/T175 cm flask. The next day, the cells are co-transfected overnight with the following plasmids: (a) Test reporter (16×TCF-TK-FireFly-Luci), (b) Internal Control Reporter (TK-Renilla-Luci), (c) Wnt3a and (d) Dkk1. GIBCO's Lipofectamine 2000 and OptiMEM are used for the transfection. After a minimum of 4 hr of transfection at 37° C., the plasmid-transfected cells are trypsinized, counted, and suspended in freezing medium (95% FBS+5% DMSO). The reporter cells are frozen at 1×10^7/ml concentrations, aliquoted into 0.5 ml or 2.5 ml/tube and stored at 70° C.
The following day, test compounds are added under HTS setup by Plate Track into 384 well plates (white, TC treated, Falcon plate) such that the final concentration of the compounds in 20 μL/well cell will be 5 μg/ml (final concentration of DMSO=0.25% and final compound concentration=20 μM). Vials of frozen reporter cells are thawed by warming the vial in a 37° C. water bath for 60-120 seconds with some shaking until the cells formed a suspension. The thawed cells are transferred into a cold 50 ml (or larger) tube and mixed well by gentle pipetting. The appropriate amount of cold Phenol Red Free RPMI medium-1640 (GIBCO, Cat #11835-030) with L-glutamine is added, both with ˜5% FBS (GIBCO-BRL, Cat. #16000-044), so that 20 μl of the final cell suspension will contain ˜5,000 cells. The cell dilution is done such that the final concentration of FBS is ˜5%.
Diluted cells (20 μl) are added into each well in a 384 well plate. The plate is incubated at 37° C. under 5% CO2 for ˜20 h. Bright-Glo substrate, 2.5 μl/well is added, and the Fire Fly Luciferase is measured using VLUX (60 second exposure) immediately after the substrate is added. Test compounds are dissolved in DMSO (100%) and added to specified wells. Raw luciferase signal data obtained as relative luminescence units (RLUs) for the test compounds are normalized to the signal of the mean of the sample reporter cell plate with DMSO.

Turning to `CN(C)C[C@H]1CCN(c2nccc(-c3ccc4ccccc4c3)n2)C1` [N,N-dimethyl-1-{(3R)-1-[4-(2-naphthyl)pyrimidin-2-yl]pyrrolidin-3-yl}methanamine], the half-maximal effective concentration (EC50) (as a rule, the concentration giving half of the maximal effect) was 1020 nM; the fold induction at 2 µM came to 2.83; the fold induction at 20 µM came to 0.01; the “A = MAX FOLD Induction/DMSO CONTROL” value worked out at 3.620 fold.

`CN(C)C[C@@H]1CCN(c2nccc(-c3ccc4ccccc4c3)n2)C1` [N,N-dimethyl-1-{(3S)-1-[4-(2-naphthyl)pyrimidin-2-yl]pyrrolidin-3-yl}methanamine]: the fold induction at 2 µM was 2.26, the fold induction at 20 µM was 2.26 and the “A = MAX FOLD Induction/DMSO CONTROL” value turned out to be 3.620 fold.

For `CN(C)CCN1CCN(c2nccc(-c3ccc4ccccc4c3)n2)CC1` [N,N-dimethyl-2-{4-[4-(2-naphthyl)pyrimidin-2-yl]piperazin-1-yl}ethanamine], the fold induction at 2 µM amounted to 2.55, the fold induction at 20 µM turned out to be 0.01 and the “A = MAX FOLD Induction/DMSO CONTROL” value came to 2.440 fold.

Consider `CN(C)S(=O)(=O)N1CC(CNc2nccc(-c3ccc4ccccc4c3)n2)C1` [N,N-dimethyl-3-({[4-(2-naphthyl)pyrimidin-2-yl]amino}methyl)azetidine-1-sulfonamide], for which the fold induction at 2 µM amounted to 1.47 and the fold induction at 20 µM is 1.14.

Turning to `CN(C)CCCN1CCN(c2nccc(-c3ccc4ccccc4c3)n2)CC1` [N,N-dimethyl-3-{4-[4-(2-naphthyl)pyrimidin-2-yl]piperazin-1-yl}propan-1-amine], the fold induction at 2 µM came out at 1.87.

For the compound `CN(C)C(=O)N1CCC(CNc2nccc(-c3ccc4ccccc4c3)n2)CC1` [N,N-dimethyl-4-({[4-(2-naphthyl)pyrimidin-2-yl]amino}methyl)piperidine-1-carboxamide], the fold induction at 2 µM was 0.87 and the fold induction at 20 µM worked out at 1.24.

As to `CN(C)S(=O)(=O)N1CCC(CNc2nccc(-c3ccc4ccccc4c3)n2)CC1` [N,N-dimethyl-4-({[4-(2-naphthyl)pyrimidin-2-yl]amino}methyl)piperidine-1-sulfonamide], the fold induction at 20 µM was determined as 1.21.

In the case of `CN(C)C(=O)N1CCCN(c2nccc(-c3ccc4ccccc4c3)n2)CC1` [N,N-dimethyl-4-[4-(2-naphthyl)pyrimidin-2-yl]-1,4-diazepane-1-carboxamide], the fold induction at 2 µM amounted to 1.2, the fold induction at 20 µM came out at 2.26 and the “A = MAX FOLD Induction/DMSO CONTROL” value was 1.520 fold.

For the compound `CN(C)S(=O)(=O)N1CCCN(c2nccc(-c3ccc4ccccc4c3)n2)CC1` [N,N-dimethyl-4-[4-(2-naphthyl)pyrimidin-2-yl]-1,4-diazepane-1-sulfonamide], the fold induction at 20 µM is 0.63.

`CN(C)C(=O)N1CCC(Nc2nccc(-c3ccc4ccccc4c3)n2)CC1` [N,N-dimethyl-4-{[4-(2-naphthyl)pyrimidin-2-yl]amino}piperidine-1-carboxamide]: it took 640 nM to reach a half-maximal effect (EC50), the fold induction at 2 µM came to 1.13, the fold induction at 20 µM was 1.58 and the “A = MAX FOLD Induction/DMSO CONTROL” value was determined as 1.810 fold.

Take `CN(C)S(=O)(=O)N1CCC(Nc2nccc(-c3ccc4ccccc4c3)n2)CC1` [N,N-dimethyl-4-{[4-(2-naphthyl)pyrimidin-2-yl]amino}piperidine-1-sulfonamide]: the EC50 was 12000 nM, the fold induction at 2 µM turned out to be 0.97, the fold induction at 20 µM came out at 1.75 and the “A = MAX FOLD Induction/DMSO CONTROL” value was 3.210 fold.

Take `CN(C)C(=O)N1CCC(N(C)c2nccc(-c3ccc4ccccc4c3)n2)CC1` [N,N-dimethyl-4-{methyl[4-(2-naphthyl)pyrimidin-2-yl]amino}piperidine-1-carboxamide]: the fold induction at 2 µM was determined as 1.37 and the fold induction at 20 µM was 0.68.

In the case of `CN(C)C(=O)NCCC1CCN(c2nccc(-c3ccc4ccccc4c3)n2)CC1` [N,N-dimethyl-N′-(2-{1-[4-(2-naphthyl)pyrimidin-2-yl]piperidin-4-yl}ethyl)urea], the fold induction at 2 µM was 1.48 and the fold induction at 20 µM is 0.18.

Consider `CN(C)C(=O)NCCN1CCN(c2nccc(-c3ccc4ccccc4c3)n2)CC1` [N,N-dimethyl-N′-(2-{4-[4-(2-naphthyl)pyrimidin-2-yl]piperazin-1-yl}ethyl)urea], for which the fold induction at 2 µM came to 1.98.

Take `CN(C)S(=O)(=O)N[C@H]1CC[C@H](Nc2nccc(-c3ccc4ccccc4c3)n2)CC1` [N,N-dimethyl-N′-(trans-4-{[4-(2-naphthyl)pyrimidin-2-yl]amino}cyclohexyl)sulfamide]: the fold induction at 2 µM is 1.65 and the fold induction at 20 µM worked out at 1.74.

For `CN(C)C(=O)N[C@H]1CC[C@H](Nc2nccc(-c3ccc4ccccc4c3)n2)CC1` [N,N-dimethyl-N′-(trans-4-{[4-(2-naphthyl)pyrimidin-2-yl]amino}cyclohexyl)urea], the fold induction at 2 µM was 2.78, the fold induction at 20 µM is 1.61 and the “A = MAX FOLD Induction/DMSO CONTROL” value is 2.270 fold.

On to `CN(C)C(=O)NCC1CN(c2nccc(-c3ccc4ccccc4c3)n2)C1` [N,N-dimethyl-N′-({1-[4-(2-naphthyl)pyrimidin-2-yl]azetidin-3-yl}methyl)urea], for which the fold induction at 2 µM stood at 0.99 and the fold induction at 20 µM was 1.43.

For the compound `CN(C)S(=O)(=O)NCC1CCN(c2nccc(-c3ccc4ccccc4c3)n2)CC1` [N,N-dimethyl-N′-({1-[4-(2-naphthyl)pyrimidin-2-yl]piperidin-4-yl}methyl)sulfamide], the fold induction at 2 µM turned out to be 1.05 and the fold induction at 20 µM stood at 1.11.

On to `CN(C)C(=O)NCC1CCN(c2nccc(-c3ccc4ccccc4c3)n2)CC1` [N,N-dimethyl-N′-({1-[4-(2-naphthyl)pyrimidin-2-yl]piperidin-4-yl}methyl)urea], for which it took 4030 nM to reach a half-maximal effect (EC50), the fold induction at 2 µM was 1.12, the fold induction at 20 µM was found to be 2.36 and the “A = MAX FOLD Induction/DMSO CONTROL” value was found to be 1.690 fold.

On to `CN(C)S(=O)(=O)NCC1CCN(c2nccc(-c3ccc4ccccc4c3)n2)C1` (stereo not shown) [N,N-dimethyl-N′-({1-[4-(2-naphthyl)pyrimidin-2-yl]pyrrolidin-3-yl}methyl)sulfamide], for which the fold induction at 2 µM is 0.99 and the fold induction at 20 µM worked out at 1.2.

Take `CN(C)C(=O)NCC1CCN(c2nccc(-c3ccc4ccccc4c3)n2)C1` (stereo not shown) [N,N-dimethyl-N′-({1-[4-(2-naphthyl)pyrimidin-2-yl]pyrrolidin-3-yl}methyl)urea]: the fold induction at 2 µM was found to be 0.84 and the fold induction at 20 µM came to 1.15.

Regarding `CN(C)S(=O)(=O)NC1CCCN(c2nccc(-c3ccc4ccccc4c3)n2)CC1` (stereo not shown) [N,N-dimethyl-N′-{1-[4-(2-naphthyl)pyrimidin-2-yl]azepan-4-yl}sulfamide], the fold induction at 2 µM amounted to 1.12 and the fold induction at 20 µM amounted to 1.01.

For `CN(C)C(=O)NC1CCCN(c2nccc(-c3ccc4ccccc4c3)n2)CC1` (stereo not shown) [N,N-dimethyl-N′-{1-[4-(2-naphthyl)pyrimidin-2-yl]azepan-4-yl}urea], the fold induction at 2 µM came out at 1.74 and the fold induction at 20 µM was determined as 1.75.

As for `CN(C)CCN[C@@H]1CCN(c2nccc(-c3ccc4ccccc4c3)n2)C1` [N,N-dimethyl-N′-{(3R)-1-[4-(2-naphthyl)pyrimidin-2-yl]pyrrolidin-3-yl}ethane-1,2-diamine], the fold induction at 2 µM was found to be 2.5.
